Assays:
Type in all cases: in vivo, human
[1] = test system: GR-inducible genes; test: Separate healthy volunteer study: genes induced in whole blood by prednisone; details: single dose, healthy volunteers
[2] = Phase 2 study: exposures (AUC, Cmax) of relacorilant and nab-paclitaxel; details: patients
Procedure: The exposures and peak concentrations of both nab-paclitaxel and of relacorilant were measured.

[3] = Phase 2 study: safety and tolerability (adverse events); details: relacorilant (intermittent or continuous) + nab-paclitaxel compared to nab-paclitaxel monotherapy; data as of Mar. 22, 2021
Procedure: Independent comparisons for the intermittent versus (vs.) comparator study arms and the continuous vs. comparator arms were performed. The primary endpoint of the study was progression-free survival as determined by the Response Evaluation Criteria in Solid Tumors (“RECIST”) version 1.1 guidelines (available via the World Wide Web at the following URL: ctep.cancer.gov/protocolDevelopment/docs/recist_guideline.pdf). Secondary endpoints included objective response rate, duration of response, overall survival, and safety of the combined administration of nab-paclitaxel and relacorilant. All efficacy objectives and corresponding endpoints listed below, assessment for response and disease progression were assessed according to RECIST v1.1.
Relacorilant treatment was safe, for both the intermittent and continuous groups, and was well tolerated by the patients. […] Safety and tolerability of the three treatment regimens is illustrated in FIG. 8 (data as of Mar. 22, 2021). There were fewer serious (grade ≥3) peripheral neuropathies in the intermittent group than the comparator group. […]

Structure (SMILES)	number of genes induced [1]	exposures (AUC and Cmax) versus safety endpoints, presence or absence of the adverse events [2]	variability of exposures ([2]; all groups, AUC and Cmax)	safety and tolerability [3]
C[C@]12C=CC(=O)C=C1CC[C@@H]1[C@@H]2C(=O)C[C@@]2(C)[C@H]1CC[C@]2(O)C(=O)CO [prednisone]	239			
Cn1cc(S(=O)(=O)N2CCC3=Cc4c(cnn4-c4ccc(F)cc4)C[C@]3(C(=O)c3cc(C(F)(F)F)ccn3)C2)cn1 [relacorilant, (R)-(1-(4-fluorophenyl)-6-((1-methyl-1H-pyrazol-4-yl)sulfonyl)-4,4a,5,6,7,8-hexahydro-1H-pyrazolo[3,4-g]isoquinolin-4a-yl)(4-(trifluoromethyl)pyridin-2-yl)methanone]		largely overlapping exposures	large variability	safe
